These results are taken from patent publication US6974806B2, “Lipid-rich plaque inhibitors” (Takeda Pharmaceutical Company Limited, priority 2000, dated 2005).

The test system of data set [1] is male apo-lipoprotein E deficient mouse. The experiment in a line: Experiment 1: plaque regression, % lesion area of aorta (oil red O) in apoE deficient mouse. It is filed as in vivo. The note with it: arteriosclerotic diet 8 weeks, then 27 mg/kg/day mixed with normal diet, 9th to 12th week, control 31%, p<0.01. From the text: [Method] […] Subsequently, each of only CE-2 powder, which is a normal diet, (control group, number of animals=8) and CE-2 powder supplemented with Compound A (number of animals=8) was given ad libitum during the period from the 9th week to the 12th week. Each animal was sacrificed by decapitation 12 weeks after initiation of the experiment, the vessel from the aortic arch to the femoral bifurcation was isolated and opened in the direction of the vascular axis, stained with oil red O (Sigma Aldrich Japan), photographed closely using a medical Nikkor (NIKON), and the photograph was scanned using a scanner (GT-6000, EPSON) and the image was processed using Adobe Photoshop. Thus, the image of the vessel was trimmed and the red color was extracted and modified into a two-tone gradation.
The two-tone image was subjected to an NIH image (National Institute of Health) to count pixels, whereby calculating the % lesion area based on the entire surface area of the internal wall of the vessel.

Data set [2] shares this test system. The experiment in a line: Experiment 2: plaque regression, % lesion area and aortic cholesteryl ester content in apoE KO mouse. The note with it: arteriosclerotic diet 8 weeks, then normal diet with 30 mg/kg/day oral for 4 weeks. It is filed as in vivo. The procedure: (§1) [Results] The lesion (plaque) area based on the vascular internal surface area was 31% in the group fed only the normal diet after 9th week. […] Experiment 2 [Method] […] Subsequently, from the 9th week to the 12th week, Compound B (0.5% methyl cellulose suspension: at 30 mg/kg/day) was administered orally, during the period only CE-2 powder, which is a normal diet, was given. The control group was maintained with only CE-2 diet. Each animal was sacrificed by decapitation 12 weeks after initiation of the experiment, the vessel from the aortic arch to the femoral bifurcation was isolated and opened in the direction of the vascular axis, stained with oil red O (Sigma Aldrich Japan), and subjected to an image analysis similarly to Experiment 1 to calculate the % lesion area based on the entire vascular internal wall area. The vessel specimen after the image analysis was homogenized in saline, and the amount of cholesteryl ester content in the aorta was measured in accordance with the method by Hara and Radin (Lipid Extract of tissues with a low-Toxicity solvent, Anal. Biochem., 90:420-426, 1978), that is, from the aorta stained with the oil red O was extracted the lipid by a glass homogenizer with hexane:isopropyl alcohol (3:2) and centrifuged. Subsequently, the supernatant was recovered and evaporated to dryness, and then dissolved in TESIT: dioxane (1:1). From this solution, its total cholesterol content (Cholesterol C test, WAKO) and the free cholesterol content (Free Cholesterol C test, WAKO) were examined. The data obtained were corrected for the wet weight of the aorta. The cholesteryl ester content (CE) was obtained by subtracting the free cholesterol content from the total cholesterol content. Since the sample, which was extracted with hexane:isopropyl alcohol and then evaporated to dryness, contained the oil red O which interferes with the absorption wavelength for the cholesterol measurement, the cholesterol content was calculated for each sample by subtracting the blank level (absorbance of oil red O in sample). [Results]

Data set [3] shares this test system. The experiment in a line: Experiment 3: plaque regression, % lesion area and aortic cholesteryl ester content in apoE KO mouse. It is filed as in vivo. The note with it: arteriosclerotic diet 8 weeks. The procedure: as §1
[Method] […] The control group was maintained with only CE-2 diet. Each animal was sacrificed by decapitation 12 weeks after initiation of the experiment, the vessel from the aortic arch to the femoral bifurcation was isolated and opened in the direction of the vascular axis, stained with oil red O (Sigma Aldrich Japan), and subjected to an image analysis similarly to Experiment 1 to calculate the % lesion area based on the entire vascular internal wall area. The vessel specimen after the image analysis was homogenized in saline, and the amount of cholesteryl ester content in the aorta was measured by an enzymatic method similarly to Experiment 2 described above. [Results]

On to `COc1cccc(OC)c1NC(=O)Cc1c(-c2ccccc2C)c2cc(Cl)ccc2oc1=O` [Compound A, 2-[6-chloro-2-oxo-4-(2-methylphenyl)-2H-chromen-3-yl]-N-(2,6-dimethoxyphenyl)acetamide], for which, in data set [1], the “lesion (plaque) area based on the vascular internal surface area” value was determined as 15%.

Take `COc1cccc(OC)c1NC(=O)Nc1oc2cc3c(cc2c1-c1ccccc1C)CCC3` [Compound B, N-(2,6-dimethoxyphenyl)-N′-[3-(2-methylphenyl)-6,7-dihydro-5H-indeno[5,6-b]furan-2-yl]urea]: the aortic cholesteryl ester content in data set [2] (apoE KO mice, control 9.42) came out at 4.76 µg/mg; in data set [2] (apoE KO mouse, n = 4, P < 0.05% (Dunnett's test)), 4.76 ± 0.46 µg/mg. Further, the “% lesion area” value in data set [2] (apoE KO mice, control 22.6%) stood at 16.9%; in data set [2] (apoE KO mouse, n = 4), 16.9 ± 1.6%.

One may read the melting point as the temperature, or range, at which the solid turns liquid. `O=C(Cc1c(-c2ccccc2)c2cc3c(cc2oc1=O)CCC3)Nc1ccc(Cl)cc1C(F)(F)F` [Compound C, N-(4-chloro-2-trifluoromethylphenyl)-2-(2-oxo-4-phenyl-2,6,7,8-tetrahydrocyclopenta[g]chromen-3-yl)acetamide] displayed a melting point of 198 to 200 °C. This compound also had an aortic cholesteryl ester content in data set [3] (apoE KO mice, then normal diet oral for 4 weeks (method: 10 mg/kg/day), control 6.83) of 5.3 µg/mg. The “% lesion area” value in data set [3] (apoE KO mice, then normal diet oral for 4 weeks (method: 10 mg/kg/day), control 31.2%) is recorded as 23.3%.

Regarding `O=C(Cc1c(-c2ccccc2)c2cc(CN3CCN(c4ncccn4)CC3)c(Cl)cc2oc1=O)Nc1ccc(Cl)cc1C(F)(F)F` [Example 272], the melting point was in the range of 214 to 217 °C.

In the case of `O=C(Cc1c(-c2ccccc2)c2cc(CN3CCN(c4ncccn4)CC3)c(Cl)cc2oc1=O)Nc1ccc(F)cc1C(F)(F)F` [Example 273], the melting point fell in the range of 203 to 205 °C.

`Cc1cc2c(-c3cccnc3)c(CC(=O)Nc3ccc(Cl)cc3C(F)(F)F)c(=O)oc2cc1Cl` [Example 329] registered a melting point of 212 to 215 °C.

With `Cc1cc2c(-c3cccnc3)c(CC(=O)Nc3ccc(F)cc3C(F)(F)F)c(=O)oc2cc1Cl` [Example 330], the melting point lay within 213 to 215 °C.

As to `CCOC(=O)C=Cc1cccc(-c2c(CC(=O)Nc3ccc(Cl)cc3C(F)(F)F)c(=O)oc3cc(Cl)c(C)cc23)c1` [Example 336], the melting point is 118 °C (dec.).

The compound `CCOC(=O)C=Cc1cccc(-c2c(CC(=O)Nc3ccc(F)cc3C(F)(F)F)c(=O)oc3cc(Cl)c(C)cc23)c1` [Example 337] showed a melting point of 193 to 196 °C.

With “N-(2,6-dimethoxyphenyl)-N′-[3-(2-methylphenyl)-6,7-dihydro-5H-indeno[5,6-b]furan-2-yl]urea [Compound B]”, the “aortic cholesteryl ester content” value in data set [3] (apoE KO mouse, then normal diet with 10 mg/kg/day oral (b869 says) for 4 weeks, n = 10) amounted to 5.30 ± 0.37 µg/mg. In data set [3] (apoE KO mouse, then normal diet with 10 mg/kg/day oral (b869 says) for 4 weeks, n = 10, P < 0.05% (Dunnett's test)), the “% lesion area” value amounted to 23.3 ± 1.8 %.
